Columns and labels:
PBMC = experiment: TNFα secretion by ELISA in PBMC stimulated with LPS; type: cell-based, human; settings: LPS 10 ng/mL, 24 h, dose-dependent between 25 to 100 µM
Description: Peripheral Blood Mononuclear Cells (PBMC) were extracted from whole blood of anonymous donors and collected by Etablissement Français du Sang of Paris, France.
PBMC were cultured in Roswell Park Memorial Institute medium (ThermoFisher Scientific) with 10% heat-inactivated fetal calf serum, 1% L-glutamine, 1% non-essential amino acids, 1% sodium pyruvate, penicillin (100 IU/mL), and streptomycin (100 µg/mL). Peripheral blood was harvested in EDTA tubes, blood was diluted with PBS 1:1, layered over Histopaque-1077® (Sigma) and centrifuged for 20 min at 400g at room temperature. Extracted PBMC were washed twice with sterile PBS then centrifuged at 300g for 5 min and resuspended in complete medium. For experiments, cells were seeded at 300,000 cells per well in 200 µL of medium in 96-well plates (ThermoFisher Scientific).
Cells were exposed to 3-oxo-C12:2-HSL (synthesized as previously described[17]) or DMSO 0.1% as a control for different durations depending on the experiment, in the presence of the lactonase inhibitor 2-hydroxyquinoline (100 µM, Sigma-Aldrich), in order to limit the hydrolysis of the AHL lactone ring, as described previously[17],[18]. […]
At the end of cell treatment, the medium was centrifuged at 300g for 5 min at 4 °C. […] Absorbance was measured by a spectrometer (FLUOstar Omega; BMG Labtech) at 450 nm and the absorbance at 540 nm was subtracted.

JAK2 = JAK2 phosphorylation by Wes capillary electrophoresis in activated RAW264.7 macrophages; type: cell-based, murine; settings: 50 µM, 2 h, LPS and IFNγ stimulated
Description: (§1) In RAW264.7 cells, inflammation was triggered with LPS (10 ng/mL, Sigma) and IFNγ (10 U/mL, R&Dsystems) for 2 h or 6 h, depending on the experiments. PBMC were exposed to LPS (10 ng/mL) and AHL for 24 h. For TAS2R38 inhibition experiments, cells were exposed to TAS2R38 allosteric inhibitor probenecid (1 mM, Sigma) for one hour before adding AHLs and the inflammatory cocktail, without changing the media.
(§2) RAW264.7 cells were scraped in lysis buffer (20 mM Tris- HCl, pH 7.4, 5 mM EDTA, 0.15 M NaCl, 1% Triton X-100, 0.5% sodium deoxycholate) supplemented with protease inhibitor cocktail (Complete Mini; Roche, Boulogne-Billancourt, France) and phosphatase inhibitor cocktail (PhosSTOP, Sigma-Aldrich). Protein concentrations were determined using the BC Assay (Uptima/Interchim). Wes™ analyses (capillary electrophoresis system; ProteinSimple, San Jose, CA) were performed according to the manufacturer’s recommendations, and adequate protein concentrations and antibody dilutions were determined in preliminary assays to allow optimal quantitative conditions. […] Data were analysed using Compass for SW3.1 software (ProteinSimple).

TAS2R138 = molecular target: T1, TAS2R138 (Mus musculus, UniProt Q7TQA6); experiment: TAS2R38/TAS2R138 inhibition experiment: TNFα secretion of RAW264.7 cells pre-treated with probenecid; type: cell-based; settings: pre-treated with 1 mM probenecid one hour, then LPS, IFNγ and AHL six hours
T1 construct: endogenous in cells; host or cells: RAW264.7 murine macrophages (ATCC)
T1 sequence (Q7TQA6 1-331): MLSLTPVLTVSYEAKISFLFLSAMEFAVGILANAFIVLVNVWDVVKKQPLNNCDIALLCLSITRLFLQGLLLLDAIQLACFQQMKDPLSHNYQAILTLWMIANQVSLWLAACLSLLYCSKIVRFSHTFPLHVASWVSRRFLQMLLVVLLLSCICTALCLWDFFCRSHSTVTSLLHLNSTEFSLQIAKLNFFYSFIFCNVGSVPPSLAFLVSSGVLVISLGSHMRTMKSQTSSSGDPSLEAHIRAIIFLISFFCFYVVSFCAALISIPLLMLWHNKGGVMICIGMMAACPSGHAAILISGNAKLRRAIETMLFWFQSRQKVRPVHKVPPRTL
Description: as §1
At the end of cell treatment, the medium was centrifuged at 300g for 5 min at 4 °C. Supernatant was frozen at − 80 °C until ELISA assays. TNFα and IL-1β ELISA kits were purchased from R&D systems and performed according to the manufacturer’s instructions. Briefly, plates were coated with a capture antibody and incubated overnight. Wells were blocked using 1% bovine serum albumin-PBS solution (Sigma), then exposed to cell supernatants at room temperature for two hours. Wells were washed and incubated with the detection antibody for an additional two hours. After thorough washing, Streptavidin-HRP solution was added for 20 min. Wells were washed, then incubated with TMB (Biolegend) solution for 20 min and the reaction was stopped using 1 M H2SO4. Absorbance was measured by a spectrometer (FLUOstar Omega; BMG Labtech) at 450 nm and the absorbance at 540 nm was subtracted.

RAW264.7 cells and PBMC = experiment: Cytotoxicity by lactate dehydrogenase release; type: cell-based; settings: doses of AHL used in all experiments
Description: Release of lactate dehydrogenase into the medium was measured to assess cellular toxicity. LDH concentration was measured using the Cytotoxicity Detection Kit (Roche, Boulogne-Billancourt, France) according to the manufacturer’s instructions. The media were centrifuged 5 min at 250g to remove any cells. 50 µL of reaction mixture was added to 50 µL of media supernatant in 96-well plates. After 10 min at room temperature, 25 µL of stop solution was added. Absorbance at 490 nm was determined with a microplate spectrometer (FLUOstar Omega; BMG Labtech). Results are expressed as absorbance arbitrary units.

STAT3 = STAT3 phosphorylation by Wes capillary electrophoresis in activated RAW264.7 macrophages; type: cell-based, murine; settings: 50 µM, 2 h, LPS and IFNγ stimulated
Description: as §1, §2

3-oxo-C12:2-HSL
TNFα secretion (PBMC): strongly decreased
phosphorylation level of JAK2 vs activated cells without AHL (JAK2): not significantly altered
anti-inflammatory effect (TNFα secretion) when TAS2R138 is inhibited (TAS2R138): abolished
cytotoxicity, lactate dehydrogenase release compared to the control (RAW264.7 cells and PBMC): no significant difference
phosphorylation level of STAT3 vs activated cells without AHL (STAT3): not significantly altered
